Experimental data published in patent US10987351B2, “RORgamma modulators and uses thereof” (Genfit, priority 2017, dated 2021).
Values joined by “and” are separate entries in the source; they are usually repeats but may differ in a detail not shown here. Identical values can stand only once. Values belong to the compound of their own block, whether it stands above or below them.

How the values were obtained:
[1] = target: T1, human RORγt (Homo sapiens, UniProt P51449); assay: RORE Luciferase/RORγt transactivation assay; assay type: cell-based; set-up: the full-length cDNA of human RORγt; V5-His (encoded by the vector); expressed in transfected cells; host or cells: COS-7 (monkey kidney); details: COS-7 cells transfected with human IL-17 promoter luciferase reporter and RORγt plasmid, 20 h; read-out: IC50, RORγt activity inhibition (luciferase reporter)
T1 sequence (P51449 1-497 isoform P51449-2): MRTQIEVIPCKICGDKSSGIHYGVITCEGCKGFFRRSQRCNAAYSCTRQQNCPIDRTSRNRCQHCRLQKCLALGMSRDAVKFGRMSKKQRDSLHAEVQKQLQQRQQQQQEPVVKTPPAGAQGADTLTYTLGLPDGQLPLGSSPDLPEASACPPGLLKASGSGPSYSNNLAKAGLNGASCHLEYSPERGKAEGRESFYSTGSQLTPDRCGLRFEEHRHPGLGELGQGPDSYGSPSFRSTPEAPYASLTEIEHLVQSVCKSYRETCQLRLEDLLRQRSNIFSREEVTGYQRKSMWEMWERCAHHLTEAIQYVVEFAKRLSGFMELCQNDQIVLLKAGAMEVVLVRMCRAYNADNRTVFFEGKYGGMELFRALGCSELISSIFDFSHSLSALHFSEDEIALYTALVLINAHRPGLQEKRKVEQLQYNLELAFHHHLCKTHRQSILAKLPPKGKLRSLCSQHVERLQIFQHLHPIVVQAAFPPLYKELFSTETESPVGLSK
Method: It is well known that RORγ binds to a conserved non-coding sequence (CNS) enhancer element in the IL-17 promoter.
Culture medium was changed every 2 days.
The 4.3 Kb human IL-17 promoter containing the RORγ-specific CNS enhancer element was PCR amplified from human genomic DNA and cloned into a pGL3-TKLuc2Cp reporter plasmid.
The luciferase reporter plasmid and the RORγt overexpression plasmid were transfected into COS-7 cell line using 4 μLJetPEI™/μg of DNA. Briefly, 150 ng of DNA (ration 1/2 between RORE-Tk Luc2Cp and cDNA RORγt or the empty vector for the negative control) was served to transfect adherent COS-7 cells in a […] culture flask, in complete medium (see cos-7 cell line culture).
Cells were then detached (using trypsin) and washed by centrifugation at 300 g for 10 minutes. Cell pellet was resuspended in serum free/phenol red free DMEM and seeded in 384 well plates at a density of 10000 cells/well and then incubated for 4 h at 37° C.
Compounds were dissolved in 100% DMSO to obtain 10 mM stock solutions. For each compound, test concentrations were diluted in serum free/phenol red free DMEM using the Genesis Freedom 200™ (TECAN) and added to the cells to obtain a 0.3% DMSO final concentration (in a final volume of 40 μL per well).
The luciferase activity was then measured with 40 μL/well steady-Glo Luciferase assay system (Promega, Madison, Wis.) and after incubation at room temperature for 30 minutes. The luminescence was estimated using the Ultra384 reader (TECAN). Data were collected and analyzed using GraphPad Prism software (GraphPad Software V5.02, San Diego Calif. USA). IC50 in μM and Emax in % were reported for each compound.

[2] = target: T1, human RORγt; assay: IL-17 secretion from EL4 murine lymphoma cells overexpressing human RORγt; assay type: cell-based; details: human RORγt-transfected EL4 cells, PMA and ionomycin stimulation; read-out: IC50, inhibition of IL-17 secretion
Method: Murine EL-4 lymphoma cell line overexpressing human RORγt was used in this functional assay to assess compound ability to inhibit IL-17 cytokine secretion.
EL-4 cells are maintained in a standard culture medium RPMI supplemented with 10% fetal calf serum, 1% sodium pyruvate, 1% essential amino acids and 1% antibiotics at 37° C. in a humidified atmosphere of 5% CO02 and 95% air. Culture medium was changed every 2 days. EL4 cells were transfected with a plasmid encoding hRORγt (sequence identical to published sequence NM 001001523). […] Briefly, 1 μg of DNA/1 million cells was served to transfect EL-4 cells. Cell/DNA suspension was transferred into certified cuvette and the electroporation of RORγt plasmid was carried out using appropriate Nucleofector® program.
Cells were seeded in 96 well plates at a density of 150000 cells/I well then treated with compounds of this invention at indicated concentrations and incubated for 24 hours at 37° C. in a humidified atmosphere of 5% CO2 and 95% air. EL-4 cells were pretreated with test compounds (RORγ modulators) and stimulated with PMA (10 ng/mL) and ionomycin (1 μM final concentration) in the presence of test compound concentrations for additional 24 h at 37° C. in a humidified atmosphere of 5% CO2 and 95% air. Subsequently, supernatants were collected (after centrifugation at 300 g for 10 minutes) to determine the concentrations of IL-17 by HTRF (CisBio, France) or ELISA (R&D Systems Europe) according to the manufacturer's protocols.

[3] = target: T2, RORγt ligand-binding domain (RORγt-LBD) (Homo sapiens, UniProt P51449); assay: Time-resolved FRET (TR-FRET) RORγt coactivator assay; assay type: biochemical; details: GST-RORγ-LBD, biotinylated RIP140 peptide, 2 hours; read-out: IC50, coactivator-RORγt binding inhibition (TR-FRET)
T2 construct: 20 nM recombinantly expressed RORγ-LBD fused to GST
T2 sequence (P51449 269-508 limits assumed): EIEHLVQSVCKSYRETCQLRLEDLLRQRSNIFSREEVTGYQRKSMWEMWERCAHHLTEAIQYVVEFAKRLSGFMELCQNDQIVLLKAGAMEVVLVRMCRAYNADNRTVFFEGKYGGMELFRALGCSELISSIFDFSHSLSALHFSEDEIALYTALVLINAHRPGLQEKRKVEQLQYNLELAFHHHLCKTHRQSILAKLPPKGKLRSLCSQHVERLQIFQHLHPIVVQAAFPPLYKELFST
Source text: Time-resolved FRET (TR-FRET) RORγt coactivator assay was used to identify RORγ modulator compounds with ligand-dependent coactivator displacement. The assay uses a d2-labeled anti-GST antibody, synthetic N-terminally biotinylated peptide which is derived from nuclear receptor coactivator protein RIP140, and a RORγt ligand-binding domain (RORγt-LBD) that is tagged with glutathione-S-transferase (GST). The influence of compounds on the RORγ-peptide interaction relies on the binding dependent energy transfer from a donor to an acceptor fluorophor attached to the binding partner of interest. […] For reduction of background from compound fluorescence, TR-FRET method makes use of generic fluorophore labels and time resolved detection.
The assays were done in a final volume of 20 μl in a 384 well plate in a CHAPS buffer (2 mM CHAPS; 1 mM DTT, 2 mM EDTA; 0.1% BSA), containing 20 nM recombinantly expressed RORγ-LBD fused to GST, 30 nM N-terminally biotinylated peptide, 1 nM streptavidin-terbium conjugate and 20 nM d2 labeled-anti-GST. Test compounds were diluted using 10 mM stock solution. The range of the final compound concentrations used in this test was from 0.3 nM to 30 μM (logarithmic scale). DMSO content of the samples was kept at 1%. The assay was equilibrated for 2 hours in the dark at room temperature in 384 well plates (Falcon). The signal was detected by an Ultra384 reader (TECAN). […] Compounds that promote coactivator displacement induce a concentration-dependent decrease in time-resolved fluorescent signal. Data were collected and analyzed using GraphPad Prism software (GraphPad Software V5.02, San Diego Calif. USA). IC50 in μM and Emax in % were reported for each compound.

- IC50 [1]: 0.1 to 1 µM
- IC50 [2]: 0.1 to 1 µM
- IC50 [3]: < 0.1 µM
SMILES: CC(=O)N1CCN(c2ccc(CC(=O)NC(c3ccccc3)c3ccccc3N3CCCCC3)cc2)CC1 (centres unmarked) [Cpd.1, 2-[4-(4-acetylpiperazin-1-yl)phenyl]-N-{phenyl[2-(piperidin-1-yl)phenyl]methyl}acetamide]

- IC50 [1]: 0.1 to 1 µM
SMILES: Cc1ccc(C(NC(=O)Cc2cc(N3CCN(C(=O)OC(C)(C)C)CC3)ccc2F)c2ccccc2)c(N2CCCCC2)c1 (centres unmarked) [Cpd.4, tert-butyl 4-{4-fluoro-3-[({[4-methyl-2-(piperidin-1-yl)phenyl](phenyl)methyl}carbamoyl)methyl]phenyl}piperazine-1-carboxylate]

- IC50 [1]: > 10 µM
- IC50 [3]: 1 to 10 µM
SMILES: Cc1ccc(C(NC(=O)Cc2cc(N3CCN(C(=O)OC(C)(C)C)CC3)ccc2C)c2ccccc2)c(N2CCCCC2)c1 (centres unmarked) [Cpd.5, tert-butyl 4-{4-methyl-3-[({[4-methyl-2-(piperidin-1-yl)phenyl](phenyl)methyl}carbamoyl)methyl]phenyl}piperazine-1-carboxylate]

- IC50 [1]: 1 to 10 µM
- IC50 [3]: 1 to 10 µM
SMILES: Cc1ccc(C(NC(=O)Cc2cc(N3CCNCC3)ccc2C)c2ccccc2)c(N2CCCCC2)c1 (centres unmarked) [Cpd.6, N-{[4-methyl-2-(piperidin-1-yl)phenyl](phenyl)methyl}-2-[2-methyl-5-(piperazin-1-yl)phenyl]acetamide]

- IC50 [1]: > 10 µM
- IC50 [3]: 1 to 10 µM
SMILES: Cc1ccc(C(NC(=O)Cc2cc(N3CCNCC3)ccc2F)c2ccccc2)c(N2CCCCC2)c1 (centres unmarked) [Cpd.7, 2-[2-fluoro-5-(piperazin-1-yl)phenyl]-N-{[4-methyl-2-(piperidin-1-yl)phenyl](phenyl)methyl}acetamide]

- IC50 [1]: 0.1 to 1 µM
- IC50 [3]: 1 to 10 µM
SMILES: Cc1ccc(C(NC(=O)Cc2cc(N3CCN(C(=O)OC(C)(C)C)CC3)ccc2C)c2ccc(C)o2)c(N2CCCCC2)c1 (centres unmarked) [Cpd.8, tert-butyl 4-{4-methyl-3-[({[4-methyl-2-(piperidin-1-yl)phenyl](5-methylfuran-2-yl)methyl}carbamoyl)methyl]phenyl}piperazine-1-carboxylate]

- IC50 [1]: 0.1 to 1 µM
- IC50 [3]: < 0.1 µM
SMILES: CC(=O)N1CCN(c2ccc(F)c(CC(=O)NC(c3ccccc3)c3ccc(C)cc3N3CCCCC3)c2)CC1 (centres unmarked) [Cpd.13, 2-[5-(4-acetylpiperazin-1-yl)-2-fluorophenyl]-N-{[4-methyl-2-(piperidin-1-yl)phenyl](phenyl)methyl}acetamide]

- IC50 [1]: 0.1 to 1 µM
- IC50 [3]: 0.1 to 1 µM and < 0.1 µM
SMILES: COc1ccc(C(NC(=O)Cc2cc(N3CCN(C(C)=O)CC3)ccc2C)c2ccccc2)c(N2CCCCCC2)c1 (centres unmarked) [Cpd.15, 2-[5-(4-acetylpiperazin-1-yl)-2-methylphenyl]-N-{[2-(azepan-1-yl)-4-methoxyphenyl](phenyl)methyl}acetamide]

More lines, now with the values behind:

SMILES: CC(=O)N1CCN(c2ccc(CC(=O)NC(CC(C)C)c3ccccc3N3CCCCC3)cc2)CC1 (centres unmarked) [Cpd.2, 2-[4-(4-acetylpiperazin-1-yl)phenyl]-N-{3-methyl-1-[2-(piperidin-1-yl)phenyl]butyl}acetamide]
- IC50 [1]: 0.1 to 1 µM
- IC50 [3]: 0.1 to 1 µM

SMILES: Cc1ccc(C(NC(=O)Cc2cc(N3CCNCC3)ccc2C)c2ccc(C)o2)c(N2CCCCC2)c1 (centres unmarked) [Cpd.9, N-{[4-methyl-2-(piperidin-1-yl)phenyl](5-methylfuran-2-yl)methyl}-2-[2-methyl-5-(piperazin-1-yl)phenyl]acetamide]
- IC50 [1]: 1 to 10 µM
- IC50 [3]: 0.1 to 1 µM

SMILES: Cc1ccc(C(NC(=O)Cc2cc(N3CCC(S(C)(=O)=O)CC3)ccc2F)c2ccc(C)o2)c(N2CCCCC2)c1 (centres unmarked) [Cpd.21, 2-[2-fluoro-5-(4-methanesulfonylpiperidin-1-yl)phenyl]-N-{[4-methyl-2-(piperidin-1-yl)phenyl](5-methylfuran-2-yl)methyl}acetamide]
- IC50 [1]: < 0.1 µM
- IC50 [3]: < 0.1 µM

SMILES: Cc1ccc(C(NC(=O)Cc2cccc(N3CCC(S(C)(=O)=O)CC3)c2)c2ccc(C)o2)c(N2CCCCC2)c1 (centres unmarked) [Cpd.22, 2-[3-(4-methanesulfonylpiperidin-1-yl)phenyl]-N-{[4-methyl-2-(piperidin-1-yl)phenyl](5-methylfuran-2-yl)methyl}acetamide]
- IC50 [1]: < 0.1 µM
- IC50 [3]: < 0.1 µM

SMILES: Cc1ccc(C(NC(=O)Cc2cccc(N3CCN(C)CC3)c2)c2ccc(C)o2)c(N2CCCCC2)c1 (centres unmarked) [Cpd.23, N-{[4-methyl-2-(piperidin-1-yl)phenyl](5-methylfuran-2-yl)methyl}-2-[3-(4-methylpiperazin-1-yl)phenyl]acetamide]
- IC50 [1]: 0.1 to 1 µM
- IC50 [3]: < 0.1 µM

SMILES: Cc1ccc(C(NC(=O)Cc2cccc(N3CCN(S(N)(=O)=O)CC3)c2)c2ccc(C)o2)c(N2CCCCC2)c1 (centres unmarked) [Cpd.24, N-{[4-methyl-2-(piperidin-1-yl)phenyl](5-methylfuran-2-yl)methyl}-2-[3-(4-sulfamoylpiperazin-1-yl)phenyl]acetamide]
- IC50 [1]: 0.1 to 1 µM

SMILES: Cc1ccc(C(NC(=O)Cc2cccc(N3CCN(C(=O)C(F)(F)F)CC3)c2)c2ccc(C)o2)c(N2CCCCC2)c1 (centres unmarked) [Cpd.25, N-{[4-methyl-2-(piperidin-1-yl)phenyl](5-methylfuran-2-yl)methyl}-2-{3-[4-(trifluoroacetyl)piperazin-1-yl]phenyl}acetamide]
- IC50 [1]: < 0.1 µM
- IC50 [3]: 0.1 to 1 µM
